# Reference: patent publication US20050197350A1, “Novel quinoline, tetrahydroquinazoline, and pyrimidine derivatives and methods of treatment related to the use thereof” (TAISHO PHARMACEUTICAL CO., LTD., priority 2003, published 2005)
# Tested on: MCH receptors
# Assay: MCH receptor activity class (method not given)
# Conditions: class by percent of control at 10^-7 M or IC50
row,Compound,class
1,CN(C)c1cc(N[C@H]2CC[C@@H](NC(=O)Nc3ccc4c(c3)OCCCO4)CC2)nc2ccccc12 [compound 2164],3 (Class 3 The value of percent of control at 10^−7 M was more than 60% or the value of IC50 was more than 200 nM.)
2,CCCCc1ccc(NC(=O)N[C@H]2CC[C@@H](Nc3cc(N(C)C)c4ccccc4n3)CC2)c(C)c1 [compound 2165],3 (Class 3 The value of percent of control at 10^−7 M was more than 60% or the value of IC50 was more than 200 nM.)
3,Cc1onc(-c2ccccc2)c1NC(=O)N[C@H]1CC[C@@H](Nc2cc(N(C)C)c3ccccc3n2)CC1 [compound 2166],3 (Class 3 The value of percent of control at 10^−7 M was more than 60% or the value of IC50 was more than 200 nM.)
4,CN(C)c1cc(N[C@H]2CC[C@@H](NC(=S)Nc3ccc(Br)cc3)CC2)nc2ccccc12 [compound 2167],3 (Class 3 The value of percent of control at 10^−7 M was more than 60% or the value of IC50 was more than 200 nM.)
5,CN(C)c1cc(N[C@H]2CC[C@@H](NC(=S)Nc3ccc(C#N)cc3)CC2)nc2ccccc12 [compound 2168],3 (Class 3 The value of percent of control at 10^−7 M was more than 60% or the value of IC50 was more than 200 nM.)
6,CN(C)c1cc(N[C@H]2CC[C@@H](NC(=S)Nc3ccc(Cl)cc3Cl)CC2)nc2ccccc12 [compound 2169],3 (Class 3 The value of percent of control at 10^−7 M was more than 60% or the value of IC50 was more than 200 nM.)
7,COc1ccc(NC(=S)N[C@H]2CC[C@@H](Nc3cc(N(C)C)c4ccccc4n3)CC2)c(OC)c1 [compound 2170],2 (Class 2: The value of percent of control at 10^−7 M was from 40% to 60% or the value of IC′50 was from 50 nM to 200 nM.)
8,Cc1cccc(C)c1NC(=S)N[C@H]1CC[C@@H](Nc2cc(N(C)C)c3ccccc3n2)CC1 [compound 2171],3 (Class 3 The value of percent of control at 10^−7 M was more than 60% or the value of IC50 was more than 200 nM.)
9,CCc1cccc(C(C)C)c1NC(=S)N[C@H]1CC[C@@H](Nc2cc(N(C)C)c3ccccc3n2)CC1 [compound 2172],3 (Class 3 The value of percent of control at 10^−7 M was more than 60% or the value of IC50 was more than 200 nM.)
10,COc1ccccc1NC(=S)N[C@H]1CC[C@@H](Nc2cc(N(C)C)c3ccccc3n2)CC1 [compound 2173],3 (Class 3 The value of percent of control at 10^−7 M was more than 60% or the value of IC50 was more than 200 nM.)
11,CN(C)c1cc(N[C@H]2CC[C@@H](NC(=S)Nc3cccc4ccccc34)CC2)nc2ccccc12 [compound 2174],3 (Class 3 The value of percent of control at 10^−7 M was more than 60% or the value of IC50 was more than 200 nM.)
12,"COc1cc(NC(=S)N[C@H]2CC[C@@H](Nc3cc(N(C)C)c4ccccc4n3)CC2)cc(OC)c1OC [compound 2175, N-(cis-4-{[4-(dimethylamino)quinolin-2-yl]amino}cyclohexyl)-N′-(3,4,5-trimethoxyphenyl)thiourea]",1 (Class 1: The value of percent of control at 10^−7 M was less than 40% or the value of IC50 was less than 50 nM.)
13,COc1ccc(NC(=S)N[C@H]2CC[C@@H](Nc3cc(N(C)C)c4ccccc4n3)CC2)cc1OC [compound 2176],3 (Class 3 The value of percent of control at 10^−7 M was more than 60% or the value of IC50 was more than 200 nM.)
14,"CN(C)c1cc(N[C@H]2CC[C@@H](NC(=S)Nc3ccc(N(C)C)c4ccccc34)CC2)nc2ccccc12 [compound 2177, N-[4-(dimethylamino)-1-naphthyl]-N′-(cis-4-{[4-(dimethylamino)quinolin-2-yl]amino}cyclohexyl)thiourea]",2 (Class 2: The value of percent of control at 10^−7 M was from 40% to 60% or the value of IC′50 was from 50 nM to 200 nM.)
15,CCc1ccccc1NC(=S)N[C@H]1CC[C@@H](Nc2cc(N(C)C)c3ccccc3n2)CC1 [compound 2178],3 (Class 3 The value of percent of control at 10^−7 M was more than 60% or the value of IC50 was more than 200 nM.)
16,CN(C)c1ccnc(N[C@H]2CC[C@@H](NC(=O)Nc3ccccc3Cl)CC2)n1 [compound 2179],3 (Class 3 The value of percent of control at 10^−7 M was more than 60% or the value of IC50 was more than 200 nM.)
17,Cc1cccc(C)c1NC(=O)N[C@H]1CC[C@@H](Nc2nccc(N(C)C)n2)CC1 [compound 2180],3 (Class 3 The value of percent of control at 10^−7 M was more than 60% or the value of IC50 was more than 200 nM.)
18,CN(C)c1ccnc(N[C@H]2CC[C@@H](NC(=O)Nc3ccc(F)cc3F)CC2)n1 [compound 2181],3 (Class 3 The value of percent of control at 10^−7 M was more than 60% or the value of IC50 was more than 200 nM.)
19,CCc1cccc(C)c1NC(=O)N[C@H]1CC[C@@H](Nc2nccc(N(C)C)n2)CC1 [compound 2182],3 (Class 3 The value of percent of control at 10^−7 M was more than 60% or the value of IC50 was more than 200 nM.)
20,CN(C)c1ccnc(N[C@H]2CC[C@@H](NC(=O)Nc3ccc(F)cc3)CC2)n1 [compound 2184],3 (Class 3 The value of percent of control at 10^−7 M was more than 60% or the value of IC50 was more than 200 nM.)
21,CSc1ccc(NC(=O)N[C@H]2CC[C@@H](Nc3nccc(N(C)C)n3)CC2)cc1 [compound 2185],3 (Class 3 The value of percent of control at 10^−7 M was more than 60% or the value of IC50 was more than 200 nM.)

row,Compound,class
1,CN(C)c1ccnc(N[C@H]2CC[C@@H](NC(=O)Nc3ccccc3C(F)(F)F)CC2)n1 [compound 2186],3 (Class 3 The value of percent of control at 10^−7 M was more than 60% or the value of IC50 was more than 200 nM.)
2,"Cc1cc(C)c(NC(=O)N[C@H]2CC[C@@H](Nc3nccc(N(C)C)n3)CC2)c(C)c1 [compound 2187, N-(cis-4-{[4-(dimethylamino)pyrimidin-2-yl]amino}cyclohexyl)-N′-mesitylurea]",2 (Class 2: The value of percent of control at 10^−7 M was from 40% to 60% or the value of IC′50 was from 50 nM to 200 nM.)
3,Cc1ccccc1NC(=O)N[C@H]1CC[C@@H](Nc2nccc(N(C)C)n2)CC1 [compound 2188],3 (Class 3 The value of percent of control at 10^−7 M was more than 60% or the value of IC50 was more than 200 nM.)
4,"CN(C)c1ccnc(N[C@H]2CC[C@@H](NC(=O)Nc3c(Cl)cc(Cl)cc3Cl)CC2)n1 [compound 2189, N-(cis-4-{[4-(dimethylamino)pyrimidin-2-yl]amino}cyclohexyl)-N′-(2,4,6-trichlorophenyl)urea]",1 (Class 1: The value of percent of control at 10^−7 M was less than 40% or the value of IC50 was less than 50 nM.)
5,"CN(C)c1ccnc(N[C@H]2CC[C@@H](NC(=O)Nc3c(F)cc(Br)cc3Br)CC2)n1 [compound 2191, N-(2,4-dibromo-6-fluorophenyl)-N′-(cis-4-{[4-(dimethylamino)pyrimidin-2-yl]amino}cyclohexyl)urea]",1 (Class 1: The value of percent of control at 10^−7 M was less than 40% or the value of IC50 was less than 50 nM.)
6,CCc1cccc(CC)c1NC(=O)N[C@H]1CC[C@@H](Nc2nccc(N(C)C)n2)CC1 [compound 2192],3 (Class 3 The value of percent of control at 10^−7 M was more than 60% or the value of IC50 was more than 200 nM.)
7,CN(C)c1ccnc(N[C@H]2CC[C@@H](NC(=O)Nc3c(Cl)cccc3C(F)(F)F)CC2)n1 [compound 2193],3 (Class 3 The value of percent of control at 10^−7 M was more than 60% or the value of IC50 was more than 200 nM.)
8,Cc1cccc(Cl)c1NC(=O)N[C@H]1CC[C@@H](Nc2nccc(N(C)C)n2)CC1 [compound 2194],3 (Class 3 The value of percent of control at 10^−7 M was more than 60% or the value of IC50 was more than 200 nM.)
9,CN(C)c1ccnc(N[C@H]2CC[C@@H](NC(=O)NCc3ccccc3Cl)CC2)n1 [compound 2195],3 (Class 3 The value of percent of control at 10^−7 M was more than 60% or the value of IC50 was more than 200 nM.)
10,CCc1cccc(C(C)C)c1NC(=O)N[C@H]1CC[C@@H](Nc2nccc(N(C)C)n2)CC1 [compound 2196],3 (Class 3 The value of percent of control at 10^−7 M was more than 60% or the value of IC50 was more than 200 nM.)
11,CCc1ccccc1NC(=O)N[C@H]1CC[C@@H](Nc2nccc(N(C)C)n2)CC1 [compound 2197],3 (Class 3 The value of percent of control at 10^−7 M was more than 60% or the value of IC50 was more than 200 nM.)
12,CN(C)c1ccnc(N[C@H]2CC[C@@H](NC(=O)Nc3ccccc3I)CC2)n1 [compound 2198],3 (Class 3 The value of percent of control at 10^−7 M was more than 60% or the value of IC50 was more than 200 nM.)
13,Cc1cccc(C(C)C)c1NC(=O)N[C@H]1CC[C@@H](Nc2nccc(N(C)C)n2)CC1 [compound 2199],3 (Class 3 The value of percent of control at 10^−7 M was more than 60% or the value of IC50 was more than 200 nM.)
14,CC(C)c1ccccc1NC(=O)N[C@H]1CC[C@@H](Nc2nccc(N(C)C)n2)CC1 [compound 2200],3 (Class 3 The value of percent of control at 10^−7 M was more than 60% or the value of IC50 was more than 200 nM.)
15,Cc1c(NC(=O)N[C@H]2CC[C@@H](Nc3nccc(N(C)C)n3)CC2)cccc1[N+](=O)[O-] [compound 2201],3 (Class 3 The value of percent of control at 10^−7 M was more than 60% or the value of IC50 was more than 200 nM.)
16,CCCc1ccccc1NC(=O)N[C@H]1CC[C@@H](Nc2nccc(N(C)C)n2)CC1 [compound 2202],3 (Class 3 The value of percent of control at 10^−7 M was more than 60% or the value of IC50 was more than 200 nM.)
17,Cc1cccc(C(C)(C)C)c1NC(=O)N[C@H]1CC[C@@H](Nc2nccc(N(C)C)n2)CC1 [compound 2203],3 (Class 3 The value of percent of control at 10^−7 M was more than 60% or the value of IC50 was more than 200 nM.)
18,CN(C)c1ccnc(N[C@H]2CC[C@@H](NC(=O)Nc3ccccc3C(C)(C)C)CC2)n1 [compound 2204],3 (Class 3 The value of percent of control at 10^−7 M was more than 60% or the value of IC50 was more than 200 nM.)
19,Cc1c(Cl)cccc1NC(=O)N[C@H]1CC[C@@H](Nc2nccc(N(C)C)n2)CC1 [compound 2205],3 (Class 3 The value of percent of control at 10^−7 M was more than 60% or the value of IC50 was more than 200 nM.)
20,CN(C)c1ccnc(N[C@H]2CC[C@@H](NC(=O)Nc3c(F)cc(Br)cc3F)CC2)n1 [compound 2206],3 (Class 3 The value of percent of control at 10^−7 M was more than 60% or the value of IC50 was more than 200 nM.)
